Laboratory results from PubChem BioAssay (NCI).
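Exposure lasted 48 hours, with cells grown in 96-well plates and compounds tested at five concentrations. Abbreviation: GI50, concentration required for 50% inhibition of growth. TGI marks complete inhibition of growth.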

Key:
Test in all cases: inhibition of tumour cell growth, NCI panel, 48 h
786-0 renal = tested on: 786-0 renal
A498 renal = tested on: A498 renal
A549 NSCLC = tested on: A549 NSCLC
ACHN renal = tested on: ACHN renal
BT-549 breast = tested on: BT-549 breast
CAKI-1 renal = tested on: CAKI-1 renal
CCRF-CEM leukemia = tested on: CCRF-CEM leukemia
COLO 205 colon = tested on: COLO 205 colon
DU-145 prostate = tested on: DU-145 prostate
EKVX NSCLC = tested on: EKVX NSCLC
HCC-2998 colon = tested on: HCC-2998 colon
HCT-116 colon = tested on: HCT-116 colon
HCT-15 colon = tested on: HCT-15 colon
HL-60(TB) leukemia = tested on: HL-60(TB) leukemia
HOP-62 NSCLC = tested on: HOP-62 NSCLC
HOP-92 NSCLC = tested on: HOP-92 NSCLC
HS 578T breast = tested on: HS 578T breast
HT29 colon = tested on: HT29 colon
IGROV1 ovarian = tested on: IGROV1 ovarian
K-562 leukemia = tested on: K-562 leukemia
KM12 colon = tested on: KM12 colon
LOX IMVI melanoma = tested on: LOX IMVI melanoma
M14 melanoma = tested on: M14 melanoma
MALME-3M melanoma = tested on: MALME-3M melanoma
MCF7 breast = tested on: MCF7 breast
MDA-MB-231 breast = tested on: MDA-MB-231 breast
MOLT-4 leukemia = tested on: MOLT-4 leukemia
NCI-H226 lung = tested on: NCI-H226 lung
NCI-H23 lung = tested on: NCI-H23 lung
NCI-H460 lung = tested on: NCI-H460 lung
NCI-H522 lung = tested on: NCI-H522 lung
NCI/ADR-RES ovarian = tested on: NCI/ADR-RES ovarian
OVCAR-3 ovarian = tested on: OVCAR-3 ovarian
OVCAR-4 ovarian = tested on: OVCAR-4 ovarian
OVCAR-5 ovarian = tested on: OVCAR-5 ovarian
OVCAR-8 ovarian = tested on: OVCAR-8 ovarian
PC-3 prostate = tested on: PC-3 prostate
RPMI-8226 leukemia = tested on: RPMI-8226 leukemia
RXF 393 renal = tested on: RXF 393 renal
SF-268 CNS = tested on: SF-268 CNS
SF-295 CNS = tested on: SF-295 CNS
SF-539 CNS = tested on: SF-539 CNS
SK-MEL-2 melanoma = tested on: SK-MEL-2 melanoma
SK-MEL-28 melanoma = tested on: SK-MEL-28 melanoma
SK-MEL-5 melanoma = tested on: SK-MEL-5 melanoma
SK-OV-3 ovarian = tested on: SK-OV-3 ovarian
SN12C renal = tested on: SN12C renal
SNB-19 CNS = tested on: SNB-19 CNS
SNB-75 CNS = tested on: SNB-75 CNS
SR leukemia = tested on: SR leukemia
SW-620 colon = tested on: SW-620 colon
T-47D breast = tested on: T-47D breast
TK-10 renal = tested on: TK-10 renal
U251 CNS = tested on: U251 CNS
UACC-257 melanoma = tested on: UACC-257 melanoma
UACC-62 melanoma = tested on: UACC-62 melanoma
UO-31 renal = tested on: UO-31 renal

Which results are given for `Cc1nc2sc(C(=O)Nc3ccccc3)c(N)c2cc1C(=O)c1ccccc1`?
GI50 (786-0 renal): 1.81 µM; TGI (786-0 renal): > 50 µM; GI50 (A498 renal): 0.216 µM; TGI (A498 renal): 3.72 µM; GI50 (A549 NSCLC): 0.853 µM; TGI (A549 NSCLC): > 50 µM; GI50 (ACHN renal): 4.52 µM; TGI (ACHN renal): > 50 µM; GI50 (BT-549 breast): 1.89 µM; TGI (BT-549 breast): > 50 µM; GI50 (CAKI-1 renal): 3.29 µM; TGI (CAKI-1 renal): > 50 µM; GI50 (CCRF-CEM leukemia): 1.69 µM; TGI (CCRF-CEM leukemia): > 50 µM; GI50 (COLO 205 colon): 1.86 µM; TGI (COLO 205 colon): 7.55 µM; GI50 (DU-145 prostate): 1.73 µM; TGI (DU-145 prostate): > 50 µM; GI50 (EKVX NSCLC): 2.74 µM; TGI (EKVX NSCLC): > 50 µM; GI50 (HCC-2998 colon): 2.19 µM; TGI (HCC-2998 colon): 25.8 µM; GI50 (HCT-116 colon): 1.59 µM; TGI (HCT-116 colon): > 50 µM; GI50 (HCT-15 colon): 2.19 µM; TGI (HCT-15 colon): > 50 µM; GI50 (HL-60(TB) leukemia): 0.0138 µM; TGI (HL-60(TB) leukemia): 38.1 µM; GI50 (HOP-62 NSCLC): 3.33 µM; TGI (HOP-62 NSCLC): > 50 µM; GI50 (HOP-92 NSCLC): 9.47 µM; TGI (HOP-92 NSCLC): > 50 µM; GI50 (HS 578T breast): 2.47 µM; TGI (HS 578T breast): > 50 µM; GI50 (HT29 colon): 1.75 µM; TGI (HT29 colon): 9.54 µM; GI50 (IGROV1 ovarian): 4.11 µM; TGI (IGROV1 ovarian): > 50 µM; GI50 (K-562 leukemia): 1.69 µM; TGI (K-562 leukemia): > 50 µM; GI50 (KM12 colon): 2.04 µM; TGI (KM12 colon): > 50 µM; GI50 (LOX IMVI melanoma): 3 µM; TGI (LOX IMVI melanoma): > 50 µM; GI50 (M14 melanoma): 1.56 µM; TGI (M14 melanoma): > 50 µM; GI50 (MALME-3M melanoma): 5.5 µM; TGI (MALME-3M melanoma): > 50 µM; GI50 (MCF7 breast): 1.73 µM; TGI (MCF7 breast): > 50 µM; GI50 (MDA-MB-231 breast): 3.04 µM; TGI (MDA-MB-231 breast): > 50 µM; GI50 (MOLT-4 leukemia): 2 µM; TGI (MOLT-4 leukemia): > 50 µM; GI50 (NCI-H226 lung): 16.9 µM; TGI (NCI-H226 lung): > 50 µM; GI50 (NCI-H23 lung): 3.99 µM; TGI (NCI-H23 lung): > 50 µM; GI50 (NCI-H460 lung): 1.66 µM; TGI (NCI-H460 lung): > 50 µM; GI50 (NCI-H522 lung): 1.54 µM; TGI (NCI-H522 lung): 12.7 µM; GI50 (NCI/ADR-RES ovarian): 1.9 µM; TGI (NCI/ADR-RES ovarian): > 50 µM; GI50 (OVCAR-3 ovarian): 1.91 µM; TGI (OVCAR-3 ovarian): 6.19 µM; GI50 (OVCAR-4 ovarian): 34.7 µM; TGI (OVCAR-4 ovarian): > 50 µM; GI50 (OVCAR-5 ovarian): 2.9 µM; TGI (OVCAR-5 ovarian): > 50 µM; GI50 (OVCAR-8 ovarian): 3.86 µM; TGI (OVCAR-8 ovarian): > 50 µM; GI50 (PC-3 prostate): 1.66 µM; TGI (PC-3 prostate): > 50 µM; GI50 (RPMI-8226 leukemia): 1.86 µM; TGI (RPMI-8226 leukemia): > 50 µM; GI50 (RXF 393 renal): 1.83 µM; TGI (RXF 393 renal): 34.3 µM; GI50 (SF-268 CNS): 3.5 µM; TGI (SF-268 CNS): > 50 µM; GI50 (SF-295 CNS): 1.83 µM; TGI (SF-295 CNS): > 50 µM; GI50 (SF-539 CNS): 1.66 µM; TGI (SF-539 CNS): > 50 µM; GI50 (SK-MEL-2 melanoma): 2.83 µM; TGI (SK-MEL-2 melanoma): > 50 µM; GI50 (SK-MEL-28 melanoma): 8.82 µM; TGI (SK-MEL-28 melanoma): > 50 µM; GI50 (SK-MEL-5 melanoma): 1.97 µM; TGI (SK-MEL-5 melanoma): 8.13 µM; GI50 (SK-OV-3 ovarian): 2.35 µM; TGI (SK-OV-3 ovarian): > 50 µM; GI50 (SN12C renal): 3.01 µM; TGI (SN12C renal): > 50 µM; GI50 (SNB-19 CNS): 2 µM; TGI (SNB-19 CNS): > 50 µM; GI50 (SNB-75 CNS): 1.87 µM; TGI (SNB-75 CNS): > 50 µM; GI50 (SR leukemia): 0.923 µM; TGI (SR leukemia): 18.1 µM; GI50 (SW-620 colon): 2.29 µM; TGI (SW-620 colon): > 50 µM; GI50 (T-47D breast): 2.94 µM; TGI (T-47D breast): > 50 µM; GI50 (TK-10 renal): 3.09 µM; TGI (TK-10 renal): > 50 µM; GI50 (U251 CNS): 2.09 µM; TGI (U251 CNS): > 50 µM; GI50 (UACC-257 melanoma): 31.5 µM; TGI (UACC-257 melanoma): > 50 µM; GI50 (UACC-62 melanoma): 2.12 µM; TGI (UACC-62 melanoma): > 50 µM; GI50 (UO-31 renal): 3.58 µM; TGI (UO-31 renal): > 50 µM
